# Results taken from PubChem BioAssay (NCI).
#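 Interpolation was linear, between the two tested concentrations surrounding the appropriate level; five concentrations were tested over 48 hours in 96-well plates. The concentration for 50% growth inhibition is given as GI50. Definition used: TGI = concentration required for complete inhibition of growth.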
# Legend:
# Experiment in all cases: inhibition of tumour cell growth, NCI panel, 48 h
# MOLT-4 leukemia = test system: MOLT-4 leukemia
# NCI-H226 lung = test system: NCI-H226 lung
# NCI-H23 lung = test system: NCI-H23 lung
# NCI-H460 lung = test system: NCI-H460 lung
# NCI-H522 lung = test system: NCI-H522 lung
# NCI/ADR-RES ovarian = test system: NCI/ADR-RES ovarian
# OVCAR-3 ovarian = test system: OVCAR-3 ovarian
# OVCAR-4 ovarian = test system: OVCAR-4 ovarian
# OVCAR-5 ovarian = test system: OVCAR-5 ovarian
# OVCAR-8 ovarian = test system: OVCAR-8 ovarian
# PC-3 prostate = test system: PC-3 prostate
# RPMI-8226 leukemia = test system: RPMI-8226 leukemia
# RXF 393 renal = test system: RXF 393 renal
# SF-268 CNS = test system: SF-268 CNS
# SF-295 CNS = test system: SF-295 CNS
# SF-539 CNS = test system: SF-539 CNS
# SK-MEL-28 melanoma = test system: SK-MEL-28 melanoma
# SK-MEL-5 melanoma = test system: SK-MEL-5 melanoma
# SK-OV-3 ovarian = test system: SK-OV-3 ovarian
# SN12C renal = test system: SN12C renal
# SNB-19 CNS = test system: SNB-19 CNS
# SR leukemia = test system: SR leukemia
# SW-620 colon = test system: SW-620 colon
# T-47D breast = test system: T-47D breast
# TK-10 renal = test system: TK-10 renal
# U251 CNS = test system: U251 CNS
# UACC-257 melanoma = test system: UACC-257 melanoma
# UACC-62 melanoma = test system: UACC-62 melanoma
compound,measurement,setting,value
CC[C@]12C=CCN3CC[C@@]4(c5ccc(OC)cc5N(C)[C@H]4[C@@](O)(C(=O)OC)[C@@H]1OC(=O)CCCC[P+](c1ccc(F)cc1)(c1ccc(F)cc1)c1ccc(F)cc1)[C@@H]32,TGI,MOLT-4 leukemia,32.6 µM
same,GI50,NCI-H226 lung,27.3 µM
same,TGI,NCI-H226 lung,> 100 µM
same,GI50,NCI-H23 lung,20.1 µM
same,TGI,NCI-H23 lung,53.5 µM
same,GI50,NCI-H460 lung,29.4 µM
same,TGI,NCI-H460 lung,> 100 µM
same,GI50,NCI-H522 lung,5.44 µM
same,TGI,NCI-H522 lung,20.2 µM
same,GI50,NCI/ADR-RES ovarian,> 100 µM
same,TGI,NCI/ADR-RES ovarian,> 100 µM
same,GI50,OVCAR-3 ovarian,9.3 µM
same,TGI,OVCAR-3 ovarian,23.3 µM
same,GI50,OVCAR-4 ovarian,25.1 µM
same,TGI,OVCAR-4 ovarian,> 100 µM
same,GI50,OVCAR-5 ovarian,29.1 µM
same,TGI,OVCAR-5 ovarian,> 100 µM
same,GI50,OVCAR-8 ovarian,29.4 µM
same,TGI,OVCAR-8 ovarian,> 100 µM
same,GI50,PC-3 prostate,16.4 µM
same,TGI,PC-3 prostate,56.7 µM
same,GI50,RPMI-8226 leukemia,2.97 µM
same,TGI,RPMI-8226 leukemia,14.9 µM
same,GI50,RXF 393 renal,13.3 µM
same,TGI,RXF 393 renal,31.6 µM
same,GI50,SF-268 CNS,17.6 µM
same,TGI,SF-268 CNS,38.3 µM
same,GI50,SF-295 CNS,30.6 µM
same,TGI,SF-295 CNS,> 100 µM
same,GI50,SF-539 CNS,21.9 µM
same,TGI,SF-539 CNS,62.4 µM
same,GI50,SK-MEL-28 melanoma,8.28 µM
same,TGI,SK-MEL-28 melanoma,20.7 µM
same,GI50,SK-MEL-5 melanoma,17.1 µM
same,TGI,SK-MEL-5 melanoma,30.8 µM
same,GI50,SK-OV-3 ovarian,23.5 µM
same,TGI,SK-OV-3 ovarian,66.5 µM
same,GI50,SN12C renal,28.6 µM
same,TGI,SN12C renal,> 100 µM
same,GI50,SNB-19 CNS,13 µM
same,TGI,SNB-19 CNS,26.7 µM
same,GI50,SR leukemia,14.5 µM
same,TGI,SR leukemia,31.9 µM
same,GI50,SW-620 colon,16.5 µM
same,TGI,SW-620 colon,37.8 µM
same,GI50,T-47D breast,11.5 µM
same,TGI,T-47D breast,43.2 µM
same,GI50,TK-10 renal,21.2 µM
same,TGI,TK-10 renal,52.6 µM
same,GI50,U251 CNS,10.7 µM
same,TGI,U251 CNS,23.3 µM
same,GI50,UACC-257 melanoma,5.58 µM
same,TGI,UACC-257 melanoma,19.2 µM
same,GI50,UACC-62 melanoma,11.3 µM
same,TGI,UACC-62 melanoma,23.5 µM
